Test results taken from patent US8507692B2, “Ester compound and use thereof” (Sumitomo Chemical Company, Limited, priority 2010, dated 2013).

Tests used:
Assay type in all cases: in vivo
[1] = system: American cockroaches (Periplaneta fuliginosa); assay: Test Example 7: oil solution spray knock-down test on cockroaches (Periplaneta fuliginosa); settings: 0.1% (w/v) oil solution, 1.5 ml sprayed; adult cockroaches (Periplaneta fuliginosa); one minute after spraying
Procedure: Zero point one (0.1) part of the compound of the present invention (4) was dissolved in 10 parts of isopropyl alcohol and the solution was mixed with 89.9 parts of deodorized kerosene to prepare a 0.1% (w/v) oil solution.
(§1) Six adult American cockroaches (Periplaneta fuliginosa, 3 males and 3 females) were released in a test container (diameter 12.5 cm, 10 cm high, the bottom face is made of 16 mesh metallic wire), the inner face on which butter was applied, and the container was set at the bottom of a test chamber (bottom face: 46 cm×46 cm, height: 70 cm). One point five (1.5) ml of the oil solution of the compound of the present invention (4) was sprayed using a spray gun at a pressure of 0.4 kg/cm^2 from 60 cm higher than the upper face of the container. Thirty seconds after the spraying, the container was pulled out from the chamber. One minutes after spraying, the number of knocked-down cockroaches was counted and a knock-down ratio was determined (repeated twice). The knocked-down ratio was calculated by the following equation. Knocked-down ratio(%)=(Number of knocked-down cockroaches/Number of test cockroaches)×100 The knocked-down ratio of the compound of the present invention (4) was 100%.

[2] = system: American cockroaches (Periplaneta Americana); assay: Test Example 8: oil solution spray knock-down test on American cockroaches, 3 minutes; settings: 0.1% (w/v) oil solution, 1.5 ml sprayed, adult American cockroaches
Procedure: Zero point one (0.1) part of the compound of the present inventions (1) to (6) and (9) to (12) was dissolved in 10 parts of isopropyl alcohol and the solution was mixed with 89.9 parts of deodorized kerosene to prepare a 0.1% (w/v) oil solution.
as §1, with “Americana,” for “fuliginosa,”, “Each 1.5” for “One point five (1.5)”, “(1) to (6) and (9) to (12)” for “(4)”, “Three” for “One”, “cockroaches)×100” for “cockroaches)×100 The knocked-down ratio of the compound of the present invention (4) was 100%.”

[3] = system: American cockroaches (Periplaneta Americana); assay: Test Example 1: oil solution spray knock-down test on American cockroaches; settings: 0.1% (w/v) oil solution, 1.5 ml sprayed, adult American cockroaches
Procedure: Zero point one (0.1) part of the compound of the present inventions (1) to (6) was dissolved in 10 parts of isopropyl alcohol and the solution was mixed with 89.9 parts of deodorized kerosene to prepare a 0.1% (w/v) oil solution.
as §1, with “Americana,” for “fuliginosa,”, “Each 1.5” for “One point five (1.5)”, “(1) to (6)” for “(4)”, “After a prescribed time,” for “One minutes after spraying,”, “cockroaches)×100” for “cockroaches)×100 The knocked-down ratio of the compound of the present invention (4) was 100%.”
For comparison, the test was conducted in the same manner as the above, except for using 2,5-dioxo-3-(2-propynyl)imidazolidinylmethyl=(1R)-trans-3-(2-methyl-1-propenyl)-2,2-dimethylcyclopropane carboxylate (compound described in Pesticide Science, 10, p. 291 (1979), hereinafter referred to as the comparative compound (1)) represented by the following formula:
[drawing 41] and 2,5-dioxo-3-(2-propynyl)imidazolidinylmethyl=(1R)-cis-3-((Z)-2-cyano-2-methoxyethenyl)-2,2-dimethylcyclopropane carboxylate (compound described in JP-A-60-16962, hereinafter referred to as the comparative compound (2)) represented by the following formula: […]

[4] = system: German cockroaches (Blattella germanica); assay: Test Example 2: oil solution spray knock-down test on German cockroaches; settings: 0.00625% (w/v) oil solution, 1.5 ml sprayed, adult German cockroaches
Procedure: Zero point zero six two five (0.00625) part of the compound of the present inventions (1) to (6) and (9) to (12) was dissolved in 10 parts of isopropyl alcohol and the solution was mixed with 89.99375 parts of deodorized kerosene to prepare a 0.00625% (w/v) oil solution.
Ten adult German cockroaches (Blattella germanica, 5 males and 5 females) were released in a test container (diameter 8.75 cm, 7.5 cm high, the bottom face is made of 16 mesh metallic wire), the inner face on which butter was applied, and the container was set at the bottom of a test chamber (bottom face: 46 cm×46 cm, height: 70 cm).
Each 1.5 ml of the oil solution of the compound of the present invention (1) to (6) and (9) to (12) was sprayed using a spray gun at a pressure of 0.4 kg/cm^2 from 60 cm higher than the upper face of the container. Thirty seconds after the spraying, the container was pulled out from the chamber. After a prescribed time, the number of knocked-down cockroaches was counted and a knock-down ratio was determined (repeated once). A knocked-down ratio was calculated by the following equation. Knocked-down ratio(%)=(Number of knocked-down cockroaches/Number of test cockroaches)×100 The results (2 minutes after spraying) are shown in Table 2.

C#CCN1CC(=O)N(COC(=O)[C@@H]2[C@@H](/C=C(\C#N)SC)C2(C)C)C1=O [compound of the present invention (4), 2,5-dioxo-3-(2-propynyl)imidazolidinylmethyl=(1R)-trans-3-[(1E)-2-cyano-2-(methylthio)ethenyl]-2,2-dimethylcyclopropane carboxylate]
100%: Knocked-down ratio [1] | Knock-down ratio (%) 3 minutes after spraying [2] | Knock-down ratio (%) 2 minutes after spraying [3] | Knock-down ratio (%) 2 minutes after spraying [4]
